Format in all cases: cell-based
One assay concerns Enterobacter cloacae. Briefly: MIC against Gram-negative bacteria: Enterobacter cloacae. Conditions: 5×10^5 CFU/mL. A digest of the protocol: (§1)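 LB broth cultures at McFarland 0.5, spun down, resuspended, diluted to 5×10^5 CFU/mL final. Two-fold serial dilutions of purified human EGF domain proteins, triplicate. 37° C, 175 rpm shaking. Endpoint: no visible growth.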
A further assay relates to Aeromonas hydrophila. The assay can be described thus: MIC against Gram-negative bacteria: Aeromonas hydrophila. The conditions noted are these: 5×10^5 CFU/mL. In outline:
as §1

The next assay has as its system Pseudomonas aeruginosa. Briefly: MIC against Gram-negative bacteria: Pseudomonas aeruginosa. The conditions noted are these: 5×10^5 CFU/mL. In outline:
as §1

In a further assay the test system is Moraxella catarrhalis. The assay can be described thus: MIC against Gram-negative bacteria: Moraxella catarrhalis. The conditions noted are these: 5×10^5 CFU/mL. In outline: as §1
A further assay concerns Klebsiella pneumonia. The assay can be described thus: MIC against Gram-negative bacteria: Klebsiella pneumonia. Conditions: 5×10^5 CFU/mL. In outline: as §1
For another assay, the system named is Proteus mirabilis. The assay can be described thus: MIC against Gram-negative bacteria: Proteus mirabilis. The conditions noted are these: 5×10^5 CFU/mL. A digest of the protocol:
as §1

The next assay deals with Proteus vulgaris. The assay can be described thus: MIC against Gram-negative bacteria: Proteus vulgaris. The conditions noted are these: 5×10^5 CFU/mL. In outline: as §1
Another assay deals with Serratia marcescens. The assay can be described thus: MIC against Gram-negative bacteria: Serratia marcescens. Conditions: 5×10^5 CFU/mL. In outline: as §1
For a further assay, the system named is E. coli DH5α. Briefly: Antibacterial activity: MIC and growth curve against E. coli DH5α in 96-well plate. Conditions: minimal inhibitory concentration against E. coli DH5α; 96-well plate, 5×10^5 CFU/mL, 37° C., judged after 8 h. A digest of the protocol:
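MIC taken as lowest protein level with no bacterial growth, tracked by A600 every 30 min during 37 °C, 175 rpm culture. Two-fold protein series 50-12.5 μg/mL final, triplicate wells, against 5×10^5 CFU/mL of LB-washed mid-log cells.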

A further assay has as its system Citrobacter diversus. The assay can be described thus: MIC against Gram-negative bacteria: Citrobacter diversus. The conditions noted are these: 5×10^5 CFU/mL. In outline: as §1
The next assay relates to E. coli BL21. Briefly: MIC against Gram-negative bacteria: E. coli BL21. Conditions: 5×10^5 CFU/mL. In outline: as §1
The mark [1] stands for this setting: Enterobacter cloacae, 96-well plate, 37° C., 10 h.
Setting [2] is: Aeromonas hydrophila, 96-well plate, 37° C., 10 h.
The mark [3] stands for this setting: Pseudomonas aeruginosa, 96-well plate, 37° C., 10 h.
Setting [4] is: Moraxella catarrhalis, 96-well plate, 37° C., 10 h.
Setting [5] is: Klebsiella pneumonia, 96-well plate, 37° C., 10 h.
Setting [6] is: Proteus mirabilis, 96-well plate, 37° C., 10 h.
Where [7] appears, read: Proteus vulgaris, 96-well plate, 37° C., 10 h.
[8] abbreviates: Serratia marcescens, 96-well plate, 37° C., 10 h.
Where [9] appears, read: Citrobacter diversus, 96-well plate, 37° C., 10 h.
Where [10] appears, read: E. coli BL21, 96-well plate, 37° C., 10 h.

Consider “PRT423 (QPNTCKDNGPCKQVCSTVGGSAICSCFPGYAIMADGVSCE; listed as Homo sapiens)”, for which the MIC was 50 µg/mL in the assay on Enterobacter cloacae (E. cloacae, 10 h cultivation at 37° C.); 25 µg/mL in the assay with Aeromonas hydrophila (A. hydrophila, 10 h cultivation at 37° C.); 12.5 µg/mL in the assay with Pseudomonas aeruginosa (P. aeruginosa, 10 h cultivation at 37° C.); 25 µg/mL in the assay with Moraxella catarrhalis (M. catarrhalis, 10 h cultivation at 37° C.); 25 µg/mL with Klebsiella pneumonia (K. pneumonia, 10 h cultivation at 37° C.); 50 µg/mL in the assay on Proteus mirabilis (P. mirabilis, 10 h cultivation at 37° C.). In addition, the minimum inhibitory concentration (MIC) is 25 µg/mL in the assay on Proteus vulgaris (P. vulgaris, 10 h cultivation at 37° C.); 12.5 µg/mL with Serratia marcescens (S. marcescens, 10 h cultivation at 37° C.); 12.5 µg/mL with E. coli DH5α; 12.5 µg/mL against Citrobacter diversus (C. diversus, 10 h cultivation at 37° C.); 25 µg/mL against E. coli BL21 (E. coli BL21, 10 h cultivation at 37° C.).

Take “PRT528 (CSCNSNGQLGSCHPLTGDCINQEPKDSSPAEECDD; listed as Homo sapiens)”: in the assay on Enterobacter cloacae (96-well plate, 37° C., 10 h), the “MIC against E. cloacae” value is 12.5 µg/mL. In addition, in the assay on Aeromonas hydrophila (96-well plate, 37° C., 10 h), the “MIC against A. hydrophila” value was 25 µg/mL. The “MIC against P. aeruginosa” value with Pseudomonas aeruginosa (96-well plate, 37° C., 10 h) is 50 µg/mL. Also, the “MIC against M. catarrhalis” value against Moraxella catarrhalis (96-well plate, 37° C., 10 h) came to 25 µg/mL. For the same substance, in the assay on Klebsiella pneumonia (96-well plate, 37° C., 10 h), the “MIC against K. pneumonia” value turned out to be 25 µg/mL. In addition, the “MIC against P. mirabilis” value with Proteus mirabilis (96-well plate, 37° C., 10 h) is 12.5 µg/mL. Moreover, in the assay on Proteus vulgaris (96-well plate, 37° C., 10 h), the “MIC against P. vulgaris” value is 25 µg/mL. Besides, the “MIC against S. marcescens” value in the assay with Serratia marcescens (96-well plate, 37° C., 10 h) was 50 µg/mL. The substance also registered a minimal inhibitory concentration (MIC) in the assay on E. coli DH5α of 12.5 µg/mL. Also, in the assay on Citrobacter diversus (96-well plate, 37° C., 10 h), the “MIC against C. diversus” value came out at 50 µg/mL. The “MIC against E. coli BL21” value in the assay with E. coli BL21 (96-well plate, 37° C., 10 h) was 25 µg/mL.

For “PRT1215 (SNDPCVEKPCPGDMQCVSYEASRRPFLCQCPPGKLGECS; listed as Homo sapiens)”, in the assay with Enterobacter cloacae (setting [1]), the “MIC against E. cloacae” value was determined as 50 µg/mL. Besides, in the assay with Aeromonas hydrophila (setting [2]), the “MIC against A. hydrophila” value was determined as 12.5 µg/mL. Besides, in the assay with Pseudomonas aeruginosa (setting [3]), the “MIC against P. aeruginosa” value amounted to 12.5 µg/mL. Also, the “MIC against M. catarrhalis” value in the assay with Moraxella catarrhalis (setting [4]) came out at 50 µg/mL. The “MIC against K. pneumonia” value against Klebsiella pneumonia (setting [5]) was found to be 25 µg/mL. The “MIC against P. mirabilis” value against Proteus mirabilis (setting [6]) amounted to 25 µg/mL. In the assay on Proteus vulgaris (setting [7]), the “MIC against P. vulgaris” value amounted to 12.5 µg/mL. Also, in the assay on Serratia marcescens (setting [8]), the “MIC against S. marcescens” value is 25 µg/mL. Moreover, in the assay on E. coli DH5α, the minimal inhibitory concentration (MIC) was determined as 25 µg/mL. Moreover, the “MIC against C. diversus” value against Citrobacter diversus (setting [9]) came to 25 µg/mL. Moreover, the “MIC against E. coli BL21” value against E. coli BL21 (setting [10]) was found to be 50 µg/mL.

Regarding “PRT622 (CNCNPMGSEPVGCRSDGTCVCKPGFGGPNC; listed as Homo sapiens)”, the “MIC E. cloacae” value against Enterobacter cloacae (96-well plate, 37° C., 10 h) came to 25 µg/mL. For the same substance, the “MIC A. hydrophila” value with Aeromonas hydrophila (96-well plate, 37° C., 10 h) came to 12.5 µg/mL. Further, the “MIC P. aeruginosa” value with Pseudomonas aeruginosa (96-well plate, 37° C., 10 h) worked out at 25 µg/mL. Further, the “MIC M. catarrhalis” value in the assay with Moraxella catarrhalis (96-well plate, 37° C., 10 h) was determined as 12.5 µg/mL. Also, in the assay on Klebsiella pneumonia (96-well plate, 37° C., 10 h), the “MIC K. pneumonia” value turned out to be 50 µg/mL. Moreover, the “MIC P. mirabilis” value against Proteus mirabilis (96-well plate, 37° C., 10 h) amounted to 50 µg/mL. Also, the “MIC P. vulgaris” value against Proteus vulgaris (96-well plate, 37° C., 10 h) is 12.5 µg/mL. The “MIC S. marcescens” value in the assay on Serratia marcescens (96-well plate, 37° C., 10 h) came to 12.5 µg/mL. This substance also yielded a minimum inhibitory concentration (MIC) in the assay with E. coli DH5α of 25 µg/mL. Besides, the “MIC C. diversus” value with Citrobacter diversus (96-well plate, 37° C., 10 h) came to 50 µg/mL. Besides, the “MIC E. coli BL21” value in the assay with E. coli BL21 (96-well plate, 37° C., 10 h) came to 50 µg/mL.

For “PRT23 (KKNPCNAEFQNFCIHGECKYIEHLEAVTCKCQQEYFGERCG; listed as Homo sapiens)”, the “MIC (μg/mL) E. cloacae” value against Enterobacter cloacae (setting [1]) was found to be 25 µg/mL. For the same substance, in the assay on Aeromonas hydrophila (setting [2]), the “MIC (μg/mL) A. hydrophila” value was 12.5 µg/mL. Also, the “MIC (μg/mL) P. aeruginosa” value in the assay on Pseudomonas aeruginosa (setting [3]) was 12.5 µg/mL. Also, in the assay on Moraxella catarrhalis (setting [4]), the “MIC (μg/mL) M. catarrhalis” value was found to be 25 µg/mL. The “MIC (μg/mL) K. pneumonia” value against Klebsiella pneumonia (setting [5]) amounted to 12.5 µg/mL. The “MIC (μg/mL) P. mirabilis” value with Proteus mirabilis (setting [6]) is 50 µg/mL. In addition, the “MIC (μg/mL) P. vulgaris” value in the assay with Proteus vulgaris (setting [7]) was 25 µg/mL. The “MIC (μg/mL) S. marcescens” value against Serratia marcescens (setting [8]) was determined as 50 µg/mL. In addition, in the assay on E. coli DH5α, the MIC was determined as 12.5 µg/mL. Moreover, the “MIC (μg/mL) C. diversus” value against Citrobacter diversus (setting [9]) was 50 µg/mL. The “MIC (μg/mL) E. coli BL21” value against E. coli BL21 (setting [10]) worked out at 25 µg/mL.

As for “PRT730 (NGNSCSDFNGGCTHECVQEPFGAKCLCPLGFLLANDSKTCE; listed as Homo sapiens)”, in the assay with Enterobacter cloacae (96-well plate, 37° C., 10 h), the “MIC E. cloacae” value came to 50 µg/mL. In the assay on Aeromonas hydrophila (96-well plate, 37° C., 10 h), the “MIC A. hydrophila” value turned out to be 25 µg/mL. In addition, the “MIC P. aeruginosa” value in the assay with Pseudomonas aeruginosa (96-well plate, 37° C., 10 h) amounted to 25 µg/mL. In addition, in the assay with Moraxella catarrhalis (96-well plate, 37° C., 10 h), the “MIC M. catarrhalis” value worked out at 25 µg/mL. Moreover, in the assay with Klebsiella pneumonia (96-well plate, 37° C., 10 h), the “MIC K. pneumonia” value stood at 25 µg/mL. Also, the “MIC P. mirabilis” value in the assay on Proteus mirabilis (96-well plate, 37° C., 10 h) was 50 µg/mL. In addition, in the assay on Proteus vulgaris (96-well plate, 37° C., 10 h), the “MIC P. vulgaris” value amounted to 12.5 µg/mL. The “MIC S. marcescens” value in the assay on Serratia marcescens (96-well plate, 37° C., 10 h) came to 25 µg/mL. Besides, the minimal inhibitory concentration (MIC) against E. coli DH5α was 25 µg/mL. For the same substance, the “MIC C. diversus” value in the assay on Citrobacter diversus (96-well plate, 37° C., 10 h) was determined as 12.5 µg/mL. The “MIC E. coli BL21” value in the assay with E. coli BL21 (96-well plate, 37° C., 10 h) was determined as 12.5 µg/mL.
